Test [1] concerns the target T1, Recombinant human TDO comprising amino acids 19-407 (Homo sapiens, UniProt P48775).
T1 construct: Recombinant human TDO comprising amino acids 19-407 with a N-terminal hexahistidine tag; hexahistidine (His6) (N); made in house; host or cells: E. coli
The test is described as follows: TDO2 enzymatic assay (NFK quantified by LCMS). Type of test: biochemical. The settings on record: 15 nM enzyme, 200 μM L-tryptophan, pH7, 30 minutes pre-incubation at RT; mean values when measured multiple times; read-out: hTDO activity (IC50 in nM). As to the method:
2) Testing Compounds for TDO Inhibitory Activity in a TDO2 Enzymatic Assay:
Recombinant human TDO comprising amino acids 19-407 with a N-terminal hexahistidine tag expressed in E. coli and purified to homogeneity is incubated at a final concentration of 15 nM in assay buffer consisting of 75 mM phosphate buffer at pH7 supplemented with 100 μM ascorbic acid, 50U/ml Catalase, 0.01% BSA, and 0.01% Tween 20 (protocol modified from Seegers et al, JBS 2014). Example compounds are serially diluted in DMSO, further diluted in phosphate buffer, and added to the reaction mixture at final concentrations ranging from 10 μM to 0.5 nM. The final DMSO concentration is 0.6%. Following a pre-incubation of 30 minutes at RT, the reaction is started by the addition of L-tryptophan at a final concentration of 200 μM in assay buffer. After 30 minutes of incubation at RT, 3 μL of the reaction mixture are transferred to a 384 deep well plate containing 25 μL of deionized water. 100 μl of 200 nM L-Tryptophan-(indole-d5) in cold 100% methanol are added followed by a 10 minutes centrifugation at 3220×g at 4° C. An additional 75 μL of deionized water are then added followed by a 10 minutes centrifugation at 3220×g at 4° C. The product of the reaction N′-Formylkynurenine (NFK) is quantified by LCMS and normalized to the L-Tryptophan-(indole-d5) signal. Samples with 0.6% DMSO (0% effect) and a TDO/IDO inhibitor (100% effect) are used as control samples to set the parameters for the non-linear regression necessary for the determination of the half-maximal inhibitory concentration (IC50) for each compound. For each compound concentration the percentage of activity compared to 0% and 100% effect is calculated as average±STDEV (each concentration measured in duplicate). IC50 values and curves are generated with XLfit software (IDBS) using Dose-Response One Site model 203 (four parameter logistic curve model). The calculated IC50 values may fluctuate depending on the daily assay performance. Fluctuations of this kind are known to those skilled in the art. When compounds are measured multiple times, mean values are given.

Test [2] concerns the target T2, Recombinant full-length human IDO1 (Homo sapiens, UniProt P14902).
T2 construct: Recombinant full-length human IDO1 with a N-terminal hexahistidine tag; hexahistidine (His6) (N); made in house; host or cells: E. coli
As to the kind of experiment: IDO1 enzymatic assay (NFK quantified by LCMS). Conditions: 2 nM enzyme, 5 μM L-tryptophan, pH6.5, 30 minutes pre-incubation at RT; mean values when measured multiple times; read-out: hIDO activity (IC50 in nM). The class given is biochemical. As to the method: 1) Testing Compounds for IDO Inhibitory Activity in an IDO1 Enzymatic Assay:
Recombinant full-length human IDO1 with a N-terminal hexahistidine tag expressed in E. coli and purified to homogeneity is incubated at a final concentration of 2 nM in assay buffer consisting of 37.5 mM phosphate buffer at pH6.5 supplemented with 10 mM ascorbic acid, 0.45 μM methylene blue, 50U/ml catalase, 0.01% BSA, and 0.01% Tween 20 (protocol modified from Seegers et al, JBS 2014). Example compounds are serially diluted in DMSO, further diluted in phosphate buffer, and added to the enzyme at final concentrations ranging from 10 μM to 0.5 nM. The final DMSO concentration is 0.6%. Following a pre-incubation of 30 minutes at RT, the reaction is started by the addition of L-tryptophan at a final concentration of 5 μM in assay buffer. After 30 minutes of incubation at RT, 3 μL of the 20 μl reaction mixture are transferred to a 384 deep well plate containing 25 μL of deionized water. 100 μl of 200 nM L-Tryptophan-(indole-d5) in cold 100% methanol are added followed by a 10 minutes centrifugation at 3220×g at 4° C. An additional 75 μL of deionized water are then added followed by a 10 minutes centrifugation at 3220×g at 4° C. The product of the reaction N′-Formylkynurenine (NFK) is quantified by LCMS and normalized to the L-Tryptophan-(indole-d5) signal. Samples with 0.6% DMSO (0% effect) and a TDO/IDO inhibitor (100% effect) are used as control samples to set the parameters for the non-linear regression necessary for the determination of the half-maximal inhibitory concentration (IC50) for each compound. For each compound concentration the percentage of activity compared to 0% and 100% effect is calculated as average±STDEV (each concentration measured in duplicate). IC50 values and curves are generated with XLfit software (IDBS) using Dose-Response One Site model 203 (four parameter logistic curve model). The calculated IC50 values may fluctuate depending on the daily assay performance. Fluctuations of this kind are known to those skilled in the art. When compounds are measured multiple times, mean values are given.

Each structure is given as a SMILES string. Where only a bound is given, the exact number is not on record here.

T1 sequence (P48775 19-406 limits assumed): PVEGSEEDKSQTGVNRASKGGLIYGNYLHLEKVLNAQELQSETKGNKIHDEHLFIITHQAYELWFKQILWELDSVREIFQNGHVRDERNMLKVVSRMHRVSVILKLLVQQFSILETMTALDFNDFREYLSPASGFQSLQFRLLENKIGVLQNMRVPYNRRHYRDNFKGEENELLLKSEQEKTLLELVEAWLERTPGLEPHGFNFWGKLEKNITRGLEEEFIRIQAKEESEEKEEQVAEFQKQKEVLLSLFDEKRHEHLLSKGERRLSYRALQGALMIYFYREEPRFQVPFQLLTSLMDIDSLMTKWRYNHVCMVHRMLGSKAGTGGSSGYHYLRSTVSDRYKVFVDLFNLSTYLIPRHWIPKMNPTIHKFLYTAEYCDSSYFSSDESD
T2 sequence (P14902 whole entry): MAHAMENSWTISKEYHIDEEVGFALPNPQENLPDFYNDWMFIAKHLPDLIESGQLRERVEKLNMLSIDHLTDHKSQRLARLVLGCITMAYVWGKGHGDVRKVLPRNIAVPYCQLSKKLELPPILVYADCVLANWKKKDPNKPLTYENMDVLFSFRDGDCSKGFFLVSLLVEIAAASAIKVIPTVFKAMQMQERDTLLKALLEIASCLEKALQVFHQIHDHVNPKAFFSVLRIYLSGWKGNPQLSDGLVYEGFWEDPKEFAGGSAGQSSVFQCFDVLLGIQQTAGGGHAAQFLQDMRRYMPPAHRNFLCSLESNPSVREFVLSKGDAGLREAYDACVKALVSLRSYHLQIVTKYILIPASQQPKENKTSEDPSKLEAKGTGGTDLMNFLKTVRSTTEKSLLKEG

For orientation: IC50 means the concentration that inhibits the measured activity by half. Regarding `OC(c1cn(-c2cccc3[nH]ccc23)nn1)c1c(C2CC2)sc2cncn12` (racemic) [Example 20, rac-(2-Cyclopropyl-imidazo[5,1-b]thiazol-3-yl)-[1-(1H-indol-4-yl)-1H-[1,2,3]triazol-4-yl]-methanol], the IC50 in test [1] is > 10200 nM; in test [2], 21.3 nM.
In the same order, the values of `CCc1sc2cncn2c1C(O)c1cn(-c2ccc(S(=O)(=O)N(C)C)cc2)nn1` (racemic) [Example 241, rac-4-{4-[(2-Ethyl-imidazo[5,1-b]thiazol-3-yl)-hydroxy-methyl]-[1,2,3]triazol-1-yl}-N,N-dimethyl-benzenesulfonamide] are > 10200 nM and 66 nM.
Take `CCc1sc2cncn2c1C(O)c1cn(-c2ccc(N3CCOCC3)cc2)nn1` (racemic) [Example 47, rac-(2-Ethyl-imidazo[5,1-b]thiazol-3-yl)-[1-(4-morpholin-4-yl-phenyl)-1H-[1,2,3]triazol-4-yl]-methanol]: the IC50 was > 10200 nM in test [1] and 44.4 nM in test [2].
With `OC(c1ccc(-c2ccccc2C(F)(F)F)s1)c1c(C2CC2)sc2cncn12` (racemic) [Example 170, rac-(2-Cyclopropyl-imidazo[5,1-b]thiazol-3-yl)-[5-(2-trifluoromethyl-phenyl)-thiophen-2-yl]-methanol], the concentration for half-maximal inhibition (IC50) came to 3820 nM in test [1] and 550 nM in test [2].
For the compound `CCCCNC(=O)Nc1ccc(-n2cc(C(O)c3c(C4CC4)sc4cncn34)nn2)cc1` (racemic) [Example 188, rac-1-Butyl-3-(4-{4-[(2-cyclopropyl-imidazo[5,1-b]thiazol-3-yl)-hydroxy-methyl]-[1,2,3]triazol-1-yl}-phenyl)-urea], the 50% inhibitory concentration (IC50) came out at 8320 nM in test [1] and 37.8 nM in test [2].
`OC(c1cn(-c2ccc(OCCC3(O)CC3)cc2)nn1)c1c(C2CC2)sc2cncn12` (racemic) [Example 142, rac-1-[2-(4-{4-[(2-Cyclopropyl-imidazo[5,1-b]thiazol-3-yl)-hydroxy-methyl]-[1,2,3]triazol-1-yl}-phenoxy)-ethyl]-cyclopropanol]: the IC50 was > 10200 nM in test [1] and 13.3 nM in test [2].
Turning to `OC(c1cn(Cc2ccccc2)nn1)c1c(C2CC2)sc2cncn12` (racemic) [Example 1, rac-(1-Benzyl-1H-[1,2,3]triazol-4-yl)-(2-cyclopropyl-imidazo[5,1-b]thiazol-3-yl)-methanol], the half-inhibitory concentration (IC50) was > 10200 nM in test [1] and 90.3 nM in test [2].
In the case of `CCc1sc2cncn2c1C(O)c1cn(-c2ccc(NC(=O)N3CCOCC3)cc2)nn1` (racemic) [Example 121, rac-Morpholine-4-carboxylic acid (4-{4-[(2-ethyl-imidazo[5,1-b]thiazol-3-yl)-hydroxy-methyl]-[1,2,3]triazol-1-yl}-phenyl)-amide], the values for the 50% inhibitory concentration (IC50) in test [1] and in test [2] were 7720 nM and 32 nM, respectively.
Consider `O=C(Nc1ccc(-n2cc(C(O)c3c(C4CC4)sc4cncn34)nn2)cc1)N1CCOCC1` (racemic) [Example 104, rac-Morpholine-4-carboxylic acid (4-{4-[(2-cyclopropyl-imidazo[5,1-b]thiazol-3-yl)-hydroxy-methyl]-[1,2,3]triazol-1-yl}-phenyl)-amide], for which the IC50 in test [1] was > 10200 nM; in test [2], 30.6 nM.
`COc1ccc(-n2nnc(C(O)c3c(C)sc4cncn34)c2C)cc1` (racemic) [Example 255, rac-[1-(4-Methoxy-phenyl)-5-methyl-1H-[1,2,3]triazol-4-yl]-(2-methyl-imidazo[5,1-b]thiazol-3-yl)-methanol]: the 50% inhibitory concentration (IC50) came to 6940 nM in test [1] and 14.2 nM in test [2].
`CCOC(=O)COc1ccc(-n2cc(C(O)c3c(C4CC4)sc4cncn34)nn2)cc1` (racemic) [Example 231, rac-(4-{4-[(2-Cyclopropyl-imidazo[5,1-b]thiazol-3-yl)-hydroxy-methyl]-[1,2,3]triazol-1-yl}-phenoxy)-acetic acid ethyl ester]: the IC50 in test [1] is > 10200 nM; in test [2] it was 22.3 nM.
As for `Cn1nccc1-c1ccc(C(O)c2c(C3CC3)sc3cncn23)s1` (racemic) [Example 169, rac-(2-Cyclopropyl-imidazo[5,1-b]thiazol-3-yl)-[5-(2-methyl-2H-pyrazol-3-yl)-thiophen-2-yl]-methanol], the IC50 came out at 2940 nM in test [1] and 60 nM in test [2].
In the case of `COC(=O)COc1ccc(-n2cc(C(O)c3c(C4CC4)sc4cncn34)nn2)cn1` (racemic) [Example 75, rac-(5-{4-[(2-Cyclopropyl-imidazo[5,1-b]thiazol-3-yl)-hydroxy-methyl]-[1,2,3]triazol-1-yl}-pyridin-2-yloxy)-acetic acid methyl ester], the IC50 in test [1] is > 10200 nM; in test [2], 40.7 nM.
Consider `OCC1(c2ccc(-n3cc(C(O)c4c(C5CC5)sc5cncn45)nn3)cc2)CC1` (racemic) [Example 40, rac-(2-Cyclopropyl-imidazo[5,1-b]thiazol-3-yl)-{1-[4-(1-hydroxymethyl-cyclopropyl)-phenyl]-1H-[1,2,3]triazol-4-yl}-methanol], for which the figures for the half-inhibitory concentration (IC50) in test [1] and in test [2] were > 10200 nM and 68.3 nM, respectively.
For the compound `COc1ccc(-n2cc(C(O)c3c(C4CC4)sc4cncn34)nn2)cc1F` (racemic) [Example 327, rac-(2-Cyclopropyl-imidazo[5,1-b]thiazol-3-yl)-[1-(3-fluoro-4-methoxy-phenyl)-1H-[1,2,3]triazol-4-yl]-methanol], the 50% inhibitory concentration (IC50) in test [1] is > 10200 nM; in test [2], 4.29 nM.
In the same order, the values of `COc1ccc(-n2cc(C(O)c3c(C4CC4)sc4cncn34)nn2)nc1OC` (racemic) [Example 66, rac-(2-Cyclopropyl-imidazo[5,1-b]thiazol-3-yl)-[1-(5,6-dimethoxy-pyridin-2-yl)-1H-[1,2,3]triazol-4-yl]-methanol] are > 10200 nM and 200 nM.
Regarding `COc1ccc(-c2ccc(C(O)c3c(C4CC4)sc4cncn34)s2)cc1` (racemic) [Example 161, rac-(2-Cyclopropyl-imidazo[5,1-b]thiazol-3-yl)-[5-(4-methoxy-phenyl)-thiophen-2-yl]-methanol], the IC50 in test [1] is > 10200 nM; in test [2], 257 nM.
For the compound `COc1c(F)cc(-n2cc(C(O)c3c(C4CC4)sc4cncn34)nn2)cc1Cl` (racemic) [Example 288, rac-[1-(3-Chloro-5-fluoro-4-methoxy-phenyl)-1H-[1,2,3]triazol-4-yl]-(2-cyclopropyl-imidazo[5,1-b]thiazol-3-yl)-methanol], the half-maximal inhibitory concentration (IC50) in test [1] is > 10200 nM; in test [2], 15.1 nM.
Consider `CCc1sc2cncn2c1C(O)c1cn(-c2ccc(OC)cc2)nn1` (racemic) [Example 285, rac-(2-Ethyl-imidazo[5,1-b]thiazol-3-yl)-[1-(4-methoxy-phenyl)-1H-[1,2,3]triazol-4-yl]-methanol], for which the IC50 amounted to 6470 nM in test [1] and 7.91 nM in test [2].

The values are drawn from patent US20200405696A1, “INHIBITORS OF INDOLEAMINE 2,3-DIOXYGENASE AND/OR TRYPTOPHAN 2,3-DIOXYGENASE” (IDORSIA PHARMACEUTICALS LTD, priority 2018, published 2020).
